Source: US11732256B2, “Multivalent glycopeptides that tightly bind to target proteins” (Brandeis University, priority 2013, dated 2023)

Test system: HIV broadly neutralizing antibody 2G12
Test: Radioactive 2G12-glycopeptide binding assay with protein G magnetic beads (binding curve and KD determination)
Details: Cys mutated to Ser
Procedure: The sequences were obtained by cloning non-selected library DNA. […] FIG. 9B is an SDS-PAGE analysis of the click reaction of the non-selected peptides. Both peptides were transcribed and translated from PCR-amplified DNA in Pure System that contains 0.02 mg/mL T7 RNA polymerase and additional 1 mM each NTP. The peptides were labeled with 3H-histidine and the bands were visualized by fluorography.
For round 10 winners, 0.12-0.2 nM radioactive glycopeptides were incubated with 0, 0.25, 0.5, 1, 2, 4, 8, 16, 32 or 64 nM 2G12 in 40 μL of selection buffer at room temperature for 1 h. Then, the solution was added to 0.12 mg of pre-equilibrated Dynabeads Protein G and tumbled at room temperature for 30 min. The supernatant was removed and the beads were washed with 3×40 μL of selection buffer. The radioactivities of the supernatant and wash solutions were measured by liquid scintillation counting as unbound fractions. […] The beads were resuspended in 40 μL of selection buffer, heated at 70° C. for 30 min to elute the bound glycopeptides, chilled on ice for 5 min, and tumbled at room temperature for 10 min. The supernatant was removed, and the beads were washed with 40 μL of selection buffer and resuspended in 40 μL of selection buffer. The radioactivities of these solutions and suspensions were measured by liquid scintillation counting separately and the values were combined as apparent bound fractions. […] All experiments were done at least in triplicate. KDs were calculated as described in the footnote of Table 4 (below).

**Q.** How did the “Tolerance of Cys substitutions for 2G12 binding” value turn out when `CC[C@H](C)[C@H](NC(=O)[C@H](CCC(N)=O)NC(=O)[C@H](CCCCN)NC(=O)[C@H](CC(C)C)NC(=O)[C@H](Cc1c[nH]cn1)NC(=O)[C@H](CC(C)C)NC(=O)[C@@H](NC(=O)[C@H](CC(=O)O)NC(=O)[C@H](CCc1cn(C2CCC(OC3O[C@H](CO[C@H]4O[C@H](CO[C@H]5O[C@H](CO)[C@@H](O)[C@H](O)[C@@H]5O[C@H]5O[C@H](CO)[C@@H](O)[C@H](O)[C@@H]5O)[C@@H](O)[C@H](O[C@H]5O[C@H](CO)[C@@H](O)[C@H](O)[C@@H]5O[C@H]5O[C@H](CO)[C@@H](O)[C@H](O)[C@@H]5O)[C@@H]4O)[C@@H](O)[C@H](O[C@H]4O[C@H](CO)[C@@H](O)[C@H](O)[C@@H]4O[C@H]4O[C@H](CO)[C@@H](O)[C@H](O)[C@@H]4O[C@H]4O[C@H](CO)[C@@H](O)[C@H](O)[C@@H]4O)[C@@H]3O)CC2)nn1)NC=O)[C@@H](C)O)C(=O)NCC(=O)NCC(=O)N[C@@H](CCc1cn(C2CCC(OC3O[C@H](CO[C@H]4O[C@H](CO[C@H]5O[C@H](CO)[C@@H](O)[C@H](O)[C@@H]5O[C@H]5O[C@H](CO)[C@@H](O)[C@H](O)[C@@H]5O)[C@@H](O)[C@H](O[C@H]5O[C@H](CO)[C@@H](O)[C@H](O)[C@@H]5O[C@H]5O[C@H](CO)[C@@H](O)[C@H](O)[C@@H]5O)[C@@H]4O)[C@@H](O)[C@H](O[C@H]4O[C@H](CO)[C@@H](O)[C@H](O)[C@@H]4O[C@H]4O[C@H](CO)[C@@H](O)[C@H](O)[C@@H]4O[C@H]4O[C@H](CO)[C@@H](O)[C@H](O)[C@@H]4O)[C@@H]3O)CC2)nn1)C(=O)N1CCC[C@H]1C(=O)N[C@@H](CC(N)=O)C(=O)N[C@@H](CS)C(=O)N[C@H](C(=O)N[C@H](C(=O)N[C@@H](CCC(N)=O)C(=O)N[C@@H](CCC(N)=O)C(=O)N[C@@H](CC(=O)O)C(=O)N[C@H](C(=O)N[C@@H](CCCNC(=N)N)C(=O)N[C@@H](CCc1cn(C2CCC(OC3O[C@H](CO[C@H]4O[C@H](CO[C@H]5O[C@H](CO)[C@@H](O)[C@H](O)[C@@H]5O[C@H]5O[C@H](CO)[C@@H](O)[C@H](O)[C@@H]5O)[C@@H](O)[C@H](O[C@H]5O[C@H](CO)[C@@H](O)[C@H](O)[C@@H]5O[C@H]5O[C@H](CO)[C@@H](O)[C@H](O)[C@@H]5O)[C@@H]4O)[C@@H](O)[C@H](O[C@H]4O[C@H](CO)[C@@H](O)[C@H](O)[C@@H]4O[C@H]4O[C@H](CO)[C@@H](O)[C@H](O)[C@@H]4O[C@H]4O[C@H](CO)[C@@H](O)[C@H](O)[C@@H]4O)[C@@H]3O)CC2)nn1)C(=O)N[C@H](C(=O)N[C@@H](CO)C(=O)N[C@H](C(=O)N1CCC[C@H]1C(=O)N[C@@H](Cc1ccc(O)cc1)C(=O)N[C@H](C(=O)N[C@@H](Cc1ccc(O)cc1)C(=O)N[C@H](C(=O)N[C@@H](Cc1c[nH]c2ccccc12)C(=O)N1CCC[C@H]1C(=O)NCC(=O)N[C@@H](CO)C(=O)NCC(=O)N[C@@H](CO)C(=O)N[C@@H](CC(C)C)C(=O)NCC(=O)N[C@@H](Cc1c[nH]cn1)C(=O)N[C@@H](Cc1c[nH]cn1)C(=O)N[C@@H](Cc1c[nH]cn1)C(=O)N[C@@H](Cc1c[nH]cn1)C(=O)N[C@@H](Cc1c[nH]cn1)C(=O)N[C@@H](Cc1c[nH]cn1)C(=O)N[C@@H](CCCNC(=N)N)C(=O)N[C@@H](CC(=O)O)C(=O)N[C@@H](Cc1ccc(O)cc1)C(=O)N[C@@H](CCCCN)C(=O)N[C@@H](CC(=O)O)C(=O)N[C@@H](CC(=O)O)C(=O)N[C@@H](CC(=O)O)C(=O)N[C@@H](CC(=O)O)C(=O)N[C@@H](CCCCN)C(=O)O)[C@@H](C)O)[C@@H](C)O)[C@@H](C)CC)[C@@H](C)O)C(C)C)[C@@H](C)O)[C@@H](C)CC` (stereo partly shown) [Clone 10F3, XDTLHLKQIGGXPNCITQQDVRXTSIPYTYTWP] was run?
**A.** Its value is “tolerated”.
